Measured values taken from patent publication US12240839B2, “Cyclobutyl dihydroquinoline sulfonamide compounds” (AMGEN INC., priority 2020, dated 2025).

molecular target: Human Nav1.7 (Homo sapiens (Human), UniProt Q15858); assay: IonWorks Barracuda (IWB) automated patch clamp assay; type: cell-based; conditions: human Nav1.7 in HEK cells, population patch-clamp, state- and use-dependent voltage protocol; read-out: hNaV1.7 IWB-U IC50
Procedure: IonWorks Barracuda (IWB) Automated Patch Clamp Assay (Same Protocol for Both Human and Mouse)
Human Nav1.7 currents were recorded in population patch-clamp mode with the IWB automated electrophysiology system (Molecular Devices, LLC, Sunnyvale, CA). Spiking HEK cells (without Kir2.1 transfection) were cultured and prepared for recordings as previously described for IonWorks Quattro testing^1. The external solution consisted of the following (in mM): NaCl 140, KCl 5, CaCl2 2, MgCl2 1, HEPES 10, and glucose 11, pH 7.4, with N-methyl-D-glucamine at 320 mOsmol. […] From a holding potential of −110 mV, currents were elicited by a train of 26 depolarizations of 150 ms duration to −20 mV at a frequency of 5 Hz. Cells were then clamped to −20 mV for a period of 4 minutes in the presence of a single concentration of test compound. Following this compound incubation period, cells were clamped to −110 mV for three seconds to recover unbound channels and put through the same 26 pulse voltage protocol as above. Peak inward current during the 26th pulse to −20 mV in the presence of compound was divided by the peak inward current evoked by the 26th pulse to −20 mV in the absence of compound to determine percent inhibition. Concentration-response curves of percent inhibition as a function of concentration were generated to calculate IC50 values as described in Kornecook, T. J.; Yin, R.; Altmann, S.; et al. Pharmacologic Characterization of AMG8379, a Potent and Selective Small Molecule Sulfonamide Antagonist of the Voltage-Gated Sodium Channel NaV1. 7.
The potency of the compounds of the present invention were evaluated on human Nav1.7 channels using the above described IonWorks Barracuda automated electrophysiology platform that evaluates the ability of compounds to block sodium conductance through Nav1.7 channels. A voltage-protocol that prosecutes both state-dependent as well as use-dependent inhibition was used as these modes of action are thought to be more relevant for the native state of Nav1.7 channels in pain sensing neurons in vivo.

Human Nav1.7, sequence (Q15858 whole entry): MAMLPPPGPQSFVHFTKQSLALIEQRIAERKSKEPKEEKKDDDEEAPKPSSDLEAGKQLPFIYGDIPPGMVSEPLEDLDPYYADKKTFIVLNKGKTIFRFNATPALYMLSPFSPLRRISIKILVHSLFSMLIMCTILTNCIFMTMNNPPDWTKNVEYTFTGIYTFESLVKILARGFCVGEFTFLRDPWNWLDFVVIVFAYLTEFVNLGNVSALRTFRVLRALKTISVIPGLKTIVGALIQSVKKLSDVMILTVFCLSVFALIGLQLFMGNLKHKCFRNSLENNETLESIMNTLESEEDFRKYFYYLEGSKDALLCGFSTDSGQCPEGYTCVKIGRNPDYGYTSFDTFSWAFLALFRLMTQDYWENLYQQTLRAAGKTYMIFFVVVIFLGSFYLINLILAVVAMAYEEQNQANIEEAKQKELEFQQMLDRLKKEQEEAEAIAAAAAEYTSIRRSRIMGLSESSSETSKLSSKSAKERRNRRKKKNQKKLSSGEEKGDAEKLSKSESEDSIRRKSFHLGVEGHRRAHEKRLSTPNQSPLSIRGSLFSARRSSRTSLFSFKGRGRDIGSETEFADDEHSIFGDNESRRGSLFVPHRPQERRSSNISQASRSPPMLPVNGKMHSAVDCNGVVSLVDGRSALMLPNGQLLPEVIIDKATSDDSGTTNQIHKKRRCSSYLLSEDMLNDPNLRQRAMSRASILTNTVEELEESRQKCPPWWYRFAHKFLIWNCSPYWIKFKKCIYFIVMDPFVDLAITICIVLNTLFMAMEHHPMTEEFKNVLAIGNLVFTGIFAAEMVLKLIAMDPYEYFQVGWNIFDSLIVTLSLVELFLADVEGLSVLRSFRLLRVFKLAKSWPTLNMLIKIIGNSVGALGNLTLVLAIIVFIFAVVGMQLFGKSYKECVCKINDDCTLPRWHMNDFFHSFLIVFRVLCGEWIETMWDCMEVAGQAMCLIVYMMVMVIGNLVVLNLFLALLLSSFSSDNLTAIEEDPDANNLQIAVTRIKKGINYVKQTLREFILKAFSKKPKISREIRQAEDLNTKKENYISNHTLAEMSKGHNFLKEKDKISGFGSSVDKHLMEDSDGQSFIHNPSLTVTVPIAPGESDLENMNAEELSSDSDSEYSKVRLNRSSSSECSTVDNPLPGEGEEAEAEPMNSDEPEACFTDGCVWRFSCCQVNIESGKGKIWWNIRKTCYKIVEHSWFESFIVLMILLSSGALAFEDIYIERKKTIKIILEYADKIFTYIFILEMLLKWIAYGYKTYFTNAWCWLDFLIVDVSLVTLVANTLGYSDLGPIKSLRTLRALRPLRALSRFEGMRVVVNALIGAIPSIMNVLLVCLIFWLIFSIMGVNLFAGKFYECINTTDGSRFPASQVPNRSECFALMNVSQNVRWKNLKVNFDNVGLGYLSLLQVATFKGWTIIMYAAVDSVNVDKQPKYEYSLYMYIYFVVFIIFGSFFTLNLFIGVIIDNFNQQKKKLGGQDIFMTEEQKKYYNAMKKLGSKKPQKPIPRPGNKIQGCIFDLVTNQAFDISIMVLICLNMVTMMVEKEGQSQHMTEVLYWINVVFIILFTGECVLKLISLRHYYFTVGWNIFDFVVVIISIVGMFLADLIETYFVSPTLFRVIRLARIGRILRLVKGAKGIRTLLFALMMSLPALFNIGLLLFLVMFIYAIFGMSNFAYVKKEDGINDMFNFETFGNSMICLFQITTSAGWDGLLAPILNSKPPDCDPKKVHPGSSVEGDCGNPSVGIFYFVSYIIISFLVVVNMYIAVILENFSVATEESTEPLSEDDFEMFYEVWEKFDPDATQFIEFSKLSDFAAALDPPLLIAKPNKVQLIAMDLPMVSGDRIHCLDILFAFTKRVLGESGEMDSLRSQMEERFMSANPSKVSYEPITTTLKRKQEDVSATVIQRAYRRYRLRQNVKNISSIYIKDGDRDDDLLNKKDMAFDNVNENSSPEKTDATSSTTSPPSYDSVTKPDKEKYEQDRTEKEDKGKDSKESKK

Row | IC50 [nM] | Compound
1 | 11 | COc1cc(C2CC(C(F)(F)F)C2)c(F)cc1-n1c(=O)ccc2cc(S(=O)(=O)Nc3ccon3)ccc21 (atropisomer, axis not shown; (P)) [Example 6, cis-(P)-1-(5-fluoro-2-methoxy-4-(3-(trifluoromethyl)cyclobutyl)phenyl)-N-(isoxazol-3-yl)-2-oxo-1,2-dihydroquinoline-6-sulfonamide]
2 | 7 | COc1cc(C2CC(C(F)(F)F)C2)c(Cl)cc1-n1c(=O)ccc2cc(S(=O)(=O)Nc3ccon3)ccc21 (atropisomer, axis not shown; (P)) [Example 12, cis-(P)-1-(5-chloro-2-methoxy-4-((1S,3S)-3-(trifluoromethyl)cyclobutyl)phenyl)-N-(isoxazol-3-yl)-2-oxo-1,2-dihydroquinoline-6-sulfonamide]
3 | 25 | COc1cc(C2CC(C(C)(C)C)C2)c(F)cc1-n1c(=O)ccc2cc(S(=O)(=O)Nc3ccon3)ccc21 (racemic) [Example 2, 1-(4-(3-(tert-butyl)cyclobutyl)-5-fluoro-2-methoxyphenyl)-N-(isoxazol-3-yl)-2-oxo-1,2-dihydroquinoline-6-sulfonamide]
4 | 7 | COc1cc([C@H]2C[C@H](C(F)(F)F)C2)c(F)cc1-n1c(=O)ccc2cc(S(=O)(=O)Nc3ccon3)ccc21 (single isomer, unassigned) [Example 7, trans-(P)-1-(5-fluoro-2-methoxy-4-(3-(trifluoromethyl)cyclobutyl)phenyl)-N-(isoxazol-3-yl)-2-oxo-1,2-dihydroquinoline-6-sulfonamide]
5 | 6 | COc1cc([C@H]2C[C@H](C(F)(F)F)C2)c(Cl)cc1-n1c(=O)ccc2cc(S(=O)(=O)Nc3ccon3)ccc21 (single isomer, unassigned) [Example 13]
6 | 7 | COc1cc(C2CC(OC(F)(F)F)C2)c(F)cc1-n1c(=O)ccc2cc(S(=O)(=O)Nc3ccon3)ccc21 (single isomer, unassigned) [Example 44, cis-(P)-1-(5-fluoro-2-methoxy-4-(3-(trifluoromethoxy)cyclobutyl)phenyl)-N-(isoxazol-3-yl)-2-oxo-1,2-dihydroquinoline-6-sulfonamide]

Row | Compound | IC50 [nM]
7 | COc1cc([C@H]2C[C@H](C(F)(F)F)C2)c(C)cc1-n1c(=O)ccc2cc(S(=O)(=O)Nc3ncccn3)ccc21 (atropisomer, axis not shown; (P)) [Example 37, trans-(P)-1-(2-methoxy-5-methyl-4-(3-(trifluoromethyl)cyclobutyl)phenyl)-2-oxo-N-(pyrimidin-2-yl)-1,2-dihydroquinoline-6-sulfonamide] | 62

tested on: CYP3A4; assay: not given; conditions: hepatocytes

Row | Hu CYP3A4 mRNA Induction (10 uM POC) [%] | Compound
8 | 10.51 | COc1cc([C@H]2C[C@@](F)(C(F)(F)F)C2)c(F)cc1-n1c(=O)ccc2cc(S(=O)(=O)Nc3ccon3)ccc21 (atropisomer, axis not shown; (P)) [Example 8, trans-(P)-1-(5-fluoro-4-(3-fluoro-3-(trifluoromethyl)cyclobutyl)-2-methoxyphenyl)-N-(isoxazol-3-yl)-2-oxo-1,2-dihydroquinoline-6-sulfonamide]

tested on: CYP3A4; assay: Human CYP3A4 induction assay (mRNA, cryopreserved human hepatocytes); conditions: 10 uM test compound, 72 hours, percent of control (rifampin positive control)
Procedure: Human CYP3A4 Induction Assay
Cryopreserved human hepatocytes were seeded in 96-well collagen coated plates at 70,000 cells per well in hepatocyte plating media (HPM, final concentrations: 1× Dulbecco's Modified Eagle's Medium, 0.1 μM dexamethasone, 10% fetal bovine serum, 1×ITS, 1×PSG) followed by incubation at 37° C. under 5% CO2 and 90% relative humidity for 2 days to allow hepatocytes to form a confluent layer. On Day 3, hepatocytes were treated with either test compound or rifampin (20 μM, positive control for CYP3A induction) prepared in hepatocyte incubation media ((HIM, final concentrations: 1× William's Medium E, 0.1 μM dexamethasone, 1×ITS, 1×PSG). Treatment was performed for 72 hours with either 2 concentrations (2 μM or 10 μM) or a range of concentrations (0.001 μM to 100 μM) of the test compound to obtain full dose-response curve. Fresh media containing the relevant concentrations of the test compound was replaced every day until the samples were processed. After 72 hours of incubation, samples were processed for mRNA analysis using bDNA technology using manufacturer's instructions (Affymetrix, Fremont, CA). Cell viability was tested at the end of the experiment using MTT assay kit (Roche Diagnostics, Basel, Switzerland). Data was analyzed and presented as percent of control (POC) and Emax and EC50 obtained when appropriate according to guidance from Center for Drug Evaluation and Research (CDER), 2006, Guidance for Industry, Drug Interaction Studies—Study Design, Data Analysis, and Implications for Dosing and Labeling.

Row | Hu CYP3A4 mRNA Induction (10 uM POC) [%] | Compound
9 | 52.8 | COc1cc(C2CC(F)(F)C2)c(F)cc1-n1c(=O)ccc2cc(S(=O)(=O)Nc3ccon3)c(F)cc21 (atropisomer, axis not shown; (P)) [Example 41, (P)-1-(4-(3,3-difluorocyclobutyl)-5-fluoro-2-methoxyphenyl)-7-fluoro-N-(isoxazol-3-yl)-2-oxo-1,2-dihydroquinoline-6-sulfonamide]
10 | 19.25 | COc1cc(C23CC(C(F)(F)F)(C2)C3)c(F)cc1-n1c(=O)ccc2cc(S(=O)(=O)Nc3ccon3)ccc21 (atropisomer, axis not shown; (P)) [Example 42, (P)-1-(5-fluoro-2-methoxy-4-(3-(trifluoromethyl)bicyclo[1.1.1]pentan-1-yl)phenyl)-N-(isoxazol-3-yl)-2-oxo-1,2-dihydroquinoline-6-sulfonamide]
11 | 68.28 | COc1cc([C@H]2C[C@H](C(F)(F)F)C2)c(F)cc1-n1c(=O)ccc2cc(S(=O)(=O)Nc3ncco3)ccc21 (atropisomer, axis not shown; (P)) [Example 43, (P)-1-(5-fluoro-2-methoxy-4-(3-(trifluoromethyl)cyclobutyl)phenyl)-N-(oxazol-2-yl)-2-oxo-1,2-dihydroquinoline-6-sulfonamide]
12 | 6.6 | COc1cc([C@H]2C[C@H](C(F)(F)F)C2)c(F)cc1-n1c(=O)ccc2c(F)c(S(=O)(=O)Nc3ccon3)ccc21 (atropisomer, axis not shown; (P)) [Example 46, trans-(P)-5-fluoro-1-(5-fluoro-2-methoxy-4-(3-(trifluoromethyl)cyclobutyl)phenyl)-N-(isoxazol-3-yl)-2-oxo-1,2-dihydroquinoline-6-sulfonamide]
13 | 19.64 | COc1cc(C23CC(C(F)(F)F)(C2)C3)c(F)cc1-n1c(=O)ccc2cc(S(=O)(=O)Nc3ncccn3)ccc21 (atropisomer, axis not shown; (P)) [Example 47, (P)-1-(5-fluoro-2-methoxy-4-(3-(trifluoromethyl)bicyclo[1.1.1]pentan-1-yl)phenyl)-2-oxo-N-(pyrimidin-2-yl)-1,2-dihydroquinoline-6-sulfonamide]
14 | 110.2 | COc1cc(C2CC(F)(F)C2)c(Cl)cc1-n1c(=O)ccc2cc(S(=O)(=O)Nc3ccon3)ccc21 (atropisomer, axis not shown; (P)) [Example 48, (P)-1-(5-chloro-4-(3,3-difluorocyclobutyl)-2-methoxyphenyl)-N-(isoxazol-3-yl)-2-oxo-1,2-dihydroquinoline-6-sulfonamide]
15 | 64.94 | COc1cc([C@H]2C[C@H](C(F)(F)F)C2)c(Cl)cc1-n1c(=O)ccc2cc(S(=O)(=O)Nc3ncco3)ccc21 (atropisomer, axis not shown; (P)) [Example 49, trans (P)-1-(5-chloro-2-methoxy-4-((1R,3R)-3-(trifluoromethyl)cyclobutyl)phenyl)-N-(oxazol-2-yl)-2-oxo-1,2-dihydroquinoline-6-sulfonamide]
16 | 83.89 | COc1cc([C@H]2C[C@@H](C(F)(F)F)C2)c(F)cc1-n1c(=O)ccc2cc(S(=O)(=O)Nc3ccon3)ccc21 (single isomer, unassigned) [Example 6, cis-(P)-1-(5-fluoro-2-methoxy-4-(3-(trifluoromethyl)cyclobutyl)phenyl)-N-(isoxazol-3-yl)-2-oxo-1,2-dihydroquinoline-6-sulfonamide]
17 | 16.35 | COc1cc([C@H]2C[C@H](C(F)(F)F)C2)c(F)cc1-n1c(=O)ccc2cc(S(=O)(=O)Nc3ccon3)ccc21 (single isomer, unassigned) [Example 7, trans-(P)-1-(5-fluoro-2-methoxy-4-(3-(trifluoromethyl)cyclobutyl)phenyl)-N-(isoxazol-3-yl)-2-oxo-1,2-dihydroquinoline-6-sulfonamide]
18 | 68.98 | COc1cc([C@H]2C[C@H](C(F)(F)F)C2)c(Cl)cc1-n1c(=O)ccc2cc(S(=O)(=O)Nc3ccon3)ccc21 (single isomer, unassigned) [Example 12]
19 | 46.85 | COc1cc([C@H]2C[C@H](C(F)(F)F)C2)c(Cl)cc1-n1c(=O)ccc2cc(S(=O)(=O)Nc3ccon3)ccc21 (single isomer, unassigned) [Example 13]
20 | 36.685 | COc1cc([C@H]2C[C@H](OC(F)(F)F)C2)c(F)cc1-n1c(=O)ccc2cc(S(=O)(=O)Nc3ccon3)ccc21 (single isomer, unassigned) [Example 45, trans-(P)-1-(5-fluoro-2-methoxy-4-(3-(trifluoromethoxy)cyclobutyl)phenyl)-N-(isoxazol-3-yl)-2-oxo-1,2-dihydroquinoline-6-sulfonamide]
21 | 84.31 | COc1cc(C2CC2)c(F)cc1-n1c(=O)ccc2cc(S(=O)(=O)Nc3ccon3)ccc21 [Compound X, 1-(4-cyclopropyl-5-fluoro-2-methoxyphenyl)-N-(isoxazol-3-yl)-2-oxo-1,2-dihydroquinoline-6-sulfonamide, reference compound]
